In patent US9339463B2, “Micronized opioid compositions having a specific particle size distribution” (priority 2007, dated 2016):

Legend:
Assay type in all cases: physicochemical
[1] = Particle size by optical microscopy, number % undersize; conditions: mean diameter
Protocol: (§1) As a secondary analytical method, the micronized and the non-micronized oxycodone analyzed by laser diffraction with results shown in Table 1, were analyzed by optical microscopy to evaluate particle size and the results are shown in Table 2. Sample aliquots (˜50 mg for micronized and ˜225 mg for non-micronized) were dispersed in 10 ml of sunflower oil and viewed on a Nikon microscope equipped with a 10× objective. Particle size (mean diameter) was determined using Image Pro® Plus software and expressed as a number % undersize. The particle size values determined by optical microscopy as shown in Table 2 are consistent with the laser diffraction particle size data shown in Table 1.

[2] = Chemical stability on storage: assay and impurities
Protocol: (§2) Samples of Example 2 and additional samples comprising micronized and non-micronized oxycodone useful for exemplary dosage forms are tested for their chemical stability and physical stability. Based on a comparison of stability data from micronized and non-micronized samples stored at both 25° C./60% RH and 40 C.°/75% RH, no differences are observed in the impurity profile through three months of study as shown in Tables 4 and 5 for exemplary lots. The impurities analyzed include (HOXY), 14-Hydroxycodeinone; (DHOXYN), 7,8-Dihydro-8,14-Dihydroxycodeinone; (DHOXY), 7,8-Dihydro-14-hydroxycodeine; (OXYE), Oxycodone ethylenolate; (OXYN), 1-Hydroxyoxycodone and Oxycodone N-oxide. Most of the impurities are found to be below the limit of quantitation (LOQ), except for HOXY and DHOXYN which were unchanged at 0.1%. […] The solid state stability of the micronized oxycodone is monitored for particle size, XRPD, DSC, and microscopy as shown in Table 6.

[3] = Physical stability on storage: DSC onset melt
Protocol: The micronized lots may also be analyzed by Differential Scanning Calorimetry (DSC). DSC is performed on a TA instrument Q100 using a heating ramp from 25-235° C. at a rate of 5° C./min. […] The sharp endotherm observed is consistent with a crystalline material and the absence of other thermal events proves that there were no polymorph transformations during melting.
as §2

[4] = Particle size distribution by laser diffraction (Malvern Mastersizer 2000), oxycodone base
[5] = Physical stability on storage: particle size (Dv90) by laser diffraction
[6] = Physical stability on storage: microscopy
Protocol: as §1, §2

[7] = Table 1 analysis, lot 2 in duplicate
[8] = additional laser diffraction analysis, Table 3

Q: What does the source list for COc1ccc2c3c1O[C@H]1C(=O)CC[C@@]4(O)[C@@H](C2)N(C)CC[C@]314 [Lot 1, oxycodone]?
A: % ≦ 1μ [1]: 30.5%; % ≦ 5μ [1]: 92.7%; % ≦ 10μ [1]: 99.5%; 1-HydroxyOXY ([2]; 5° C./60% RH, 1 mo (Table 4)): <LOQ; 1-HydroxyOXY ([2]; 5° C./60% RH, 3 mo (Table 4)): <LOQ; Assay ([2]; 25° C./60% RH, 1 mo): 98.9%; DHOXY (7,8-Dihydro-14-hydroxycodeine) ([2]; 25° C./60% RH, 1 mo): <LOQ; DHOXYN (7,8-Dihydro-8,14-Dihydroxycodeinone) ([2]; 25° C./60% RH, 1 mo): 0.10%; HOXY (14-Hydroxycodeinone) ([2]; 25° C./60% RH, 1 mo): 0.08%; OXYE (Oxycodone ethylenolate) ([2]; 25° C./60% RH, 1 mo): <LOQ; OXYN ([2]; 25° C./60% RH, 1 mo): <LOQ; Other (impurities; Table 5: >0.05%) ([2]; 25° C./60% RH, 1 mo): <LOQ; Total impurities ([2]; 25° C./60% RH, 1 mo): 0.18%; Assay ([2]; 25° C./60% RH, 3 mo): 99.9%; DHOXY (7,8-Dihydro-14-hydroxycodeine) ([2]; 25° C./60% RH, 3 mo): <LOQ; DHOXYN (7,8-Dihydro-8,14-Dihydroxycodeinone) ([2]; 25° C./60% RH, 3 mo): 0.10%; HOXY (14-Hydroxycodeinone) ([2]; 25° C./60% RH, 3 mo): 0.08%; OXYE (Oxycodone ethylenolate) ([2]; 25° C./60% RH, 3 mo): <LOQ; OXYN ([2]; 25° C./60% RH, 3 mo): <LOQ; Other (impurities; Table 5: >0.05%) ([2]; 25° C./60% RH, 3 mo): <LOQ; Total impurities ([2]; 25° C./60% RH, 3 mo): 0.18%; 1-HydroxyOXY ([2]; 40° C./75% RH, 1 mo): <LOQ; Assay ([2]; 40° C./75% RH, 1 mo): 100.0%; DHOXY (7,8-Dihydro-14-hydroxycodeine) ([2]; 40° C./75% RH, 1 mo): <LOQ; DHOXYN (7,8-Dihydro-8,14-Dihydroxycodeinone) ([2]; 40° C./75% RH, 1 mo): 0.10%; HOXY (14-Hydroxycodeinone) ([2]; 40° C./75% RH, 1 mo): 0.08%; OXYE (Oxycodone ethylenolate) ([2]; 40° C./75% RH, 1 mo): <LOQ; OXYN ([2]; 40° C./75% RH, 1 mo): <LOQ; Other (impurities; Table 5: >0.05%) ([2]; 40° C./75% RH, 1 mo): <LOQ; Total impurities ([2]; 40° C./75% RH, 1 mo): 0.18%; 1-HydroxyOXY ([2]; 40° C./75% RH, 3 mo): <LOQ; Assay ([2]; 40° C./75% RH, 3 mo): 99.5%; DHOXY (7,8-Dihydro-14-hydroxycodeine) ([2]; 40° C./75% RH, 3 mo): <LOQ; DHOXYN (7,8-Dihydro-8,14-Dihydroxycodeinone) ([2]; 40° C./75% RH, 3 mo): 0.10%; HOXY (14-Hydroxycodeinone) ([2]; 40° C./75% RH, 3 mo): 0.08%; OXYE (Oxycodone ethylenolate) ([2]; 40° C./75% RH, 3 mo): <LOQ; OXYN ([2]; 40° C./75% RH, 3 mo): <LOQ; Other (impurities; Table 5: >0.05%) ([2]; 40° C./75% RH, 3 mo): <LOQ; Total impurities ([2]; 40° C./75% RH, 3 mo): 0.18%; 1-HydroxyOXY ([2]; Time 0): <LOQ; Assay ([2]; Time 0): 99.3%; DHOXY (7,8-Dihydro-14-hydroxycodeine) ([2]; Time 0): <LOQ; DHOXYN (7,8-Dihydro-8,14-Dihydroxycodeinone) ([2]; Time 0): 0.10%; HOXY (14-Hydroxycodeinone) ([2]; Time 0): 0.08%; OXYE (Oxycodone ethylenolate) ([2]; Time 0): <LOQ; OXYN ([2]; Time 0): <LOQ; Other (impurities; Table 5: >0.05%) ([2]; Time 0): <LOQ; Total impurities ([2]; Time 0): 0.18%; DSC Onset Melt ([3]; 25° C./60% RH, 3 mo): 221.8 °C; DSC Onset Melt ([3]; 40° C./75% RH, 3 mo): 221.9 °C; DSC Onset Melt ([3]; Time 0): 222.0 °C; Particle size (Dv10) [4, 7]: 0.5 μ; Particle size (Dv50) [4, 7]: 1.4 μ; Particle size (Dv90) [4, 7]: 3.0 μ; Particle size (Dv10) [4, 8]: 0.7 μ; Particle size (Dv50) [4, 8]: 2.1 μ; Particle size (Dv90) [4, 8]: 5.1 μ; Particle size (Dv90) ([5]; 25° C./60% RH, 3 months): 6 μ; Particle size (Dv90) ([5]; 40° C./75% RH, 3 months): 11 μ; Particle size (Dv90) ([5]; Time 0): 4 μ; Microscopy, ≦10 μ ([6]; 25° C./60% RH, 3 mo): 98.4%; Microscopy, ≦10 μ ([6]; 40° C./75% RH, 3 mo): 98.2%; Microscopy, ≦10 μ ([6]; Time 0): 99.5%
